{"source": "patent US8519183B2", "about": "“Uses for amino acid anticonvulsants” (Research Corporation Technologies, Inc., priority 2000, dated 2013)", "key": {"male ICR mice": {"system": "male ICR mice", "assay": "radiant heat induced tail flick response", "format": "in vivo", "protocol": "Groups of 4 male ICR mice weighing 22±2 gms were employed. A dose (30 mg/kg) of test compound dissolved in a vehicle of saline was administered intraperitoneally. The control group received vehicle alone. At pretreatment (0 minute) a focused beam of radiant heat was applied to the middle dorsal surface of the tail to elicit a tail flick response within 6-7.5 seconds in pre-treated animals. A maximum cut-off time of 15 seconds was set. The time required to elicit a pain response was recorded for each animal at 0 and 30 minutes following administration of test compound. Prolongation by 50 percent or more (≧50%) of the time required to elicit a tail flick indicated analgesic activity."}, "[1]": {"biological_target": "T1, serotonin 5-HT1A receptor (Rattus norvegicus, UniProt P19327)", "T1 construct": "from tissue; host or cells: living Long Evans derived rat (in vivo)", "T1 sequence (P19327 1-422)": "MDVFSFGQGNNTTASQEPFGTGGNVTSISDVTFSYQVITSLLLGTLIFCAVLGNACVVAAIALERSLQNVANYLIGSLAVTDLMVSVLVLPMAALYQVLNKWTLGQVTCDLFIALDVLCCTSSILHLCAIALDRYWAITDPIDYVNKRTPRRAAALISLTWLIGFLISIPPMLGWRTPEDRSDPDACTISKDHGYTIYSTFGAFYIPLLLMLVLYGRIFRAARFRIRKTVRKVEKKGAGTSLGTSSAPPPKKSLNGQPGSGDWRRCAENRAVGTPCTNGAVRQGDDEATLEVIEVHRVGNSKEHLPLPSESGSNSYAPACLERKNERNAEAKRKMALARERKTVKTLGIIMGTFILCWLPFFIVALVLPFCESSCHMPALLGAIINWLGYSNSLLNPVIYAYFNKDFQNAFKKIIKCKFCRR", "assay": "5-MeODMT-induced head twitch", "format": "in vivo, rats", "conditions": "10 mg/kg PO, 3 rats", "protocol": "Test substance was administered PO (30 mg/kg) to a group of 3 Long Evans derived male or female rats weighing 150±20 gms one hour before injection of 5-MeODMT (5-methoxy-N,N-dimethyltryptamine, 3 mg/kg IP)."}, "[2]": {"system": "ICR derived male or female mice", "assay": "Analgesia, Acetic Acid Writhing", "format": "in vivo", "conditions": "100 mg/kg PO", "description": "In the first animal study in Example 1, the degree of pain experienced by the mice after injection by acetic acid is seen by the number of writhes. If the mice experience no pain, there is no writhing.\nThe protocol is based on the acetic acid writhing test in mice, developed by R. Koster, et al. Fed. Proc, 18, 412 […], and referred to a Koster test and Hunskarai, S., et al., J. Neuroscience Meth. 14: 69-76, 1985.\nReduction in the number of writhes by 50 percent or more (≧50%) per group of animals observed during the 5 to 10 minute period after acetic acid administration, relative to a vehicle treated control group, indicated analgesic activity."}, "[3]": {"system": "ICR derived male or female mice", "assay": "formalin induced hind paw licking", "format": "in vivo", "conditions": "300 mg/kg PO", "protocol": "The degree of pain is determined by measuring the decrease in the amount of time the animal spends licking the formalin-injected paw after administration of the drug.\nReduction of the induced hind paw licking time recorded during the following 20 to 30 minutes period by 50 percent or more (50%) indicated analgesic activity."}, "Holtzman male rats": {"system": "Holtzman male rats", "assay": "NMDA Induced Hyperalgesia (thermal escape latency)", "format": "in vivo", "protocol": "Holtzman male rats weighing 275 to 325 grams were prepared with lumbar intrathecal catheters under isoflurane anesthesia. The catheters were externalized on the back of the head. Four to five days after implant, the animals were employed.\nNMDA administration was accomplished using a gear driven microinjection syringe connected to the spinal catheter by a length of calibrated PE-90 tubing. The catheter plug was immediately replaced to avoid back flow and the rat was replaced in its testing box.\nA modified Hargreaves box was used which allows the direction of a focused light beam on the underface of the paw through a glass surface upon which the rat stands. Surface temperature was maintained at 30° C. Withdrawal of the paw was taken as the response. Lack of response within twenty seconds was cause to terminate the test and assign that score.\nThe rats were placed on the thermal escape box and allowed to acclimate for 30 minutes prior to testing. A measurement was taken for each hindpaw to establish an average baseline latency (counted as time=0). (2R)-2-(acetylamino)-N-[(4-fluorophenyl)methyl]-3-methoxypropanamide solution, that is, test product in this experiment, was given at an intrathecal dose of 1 μg/10 μl 10 minutes prior to intrathecal NMDA. A control group was given an identical amount of saline 10 minutes prior to intrathecal NMDA. Measurements were then made at 15, 30, 60, 120, 240 and 360 minutes after intrathecal NMDA injection. General behavior assessments were made during each period of observation and include: tactile allodynia (vocalization/agitation induced by light touch applied to the body surface), spontaneous vocalization, biting and chewing of body surface, loss of hind limb placing and stepping reflex, loss of hind limb weight bearing and loss of righting reflex."}, "Sprague Dawley male rats [4]": {"system": "Sprague Dawley male rats", "assay": "Chung model of neuropathy, tactile threshold (von Frey hairs)", "format": "in vivo", "protocol": "Sprague Dawley male rats weighing 275 to 325 grams was used in this experiment. In this experiment, the response to neuropathic pain was determined. The neuropathic preparation used to induce an allodynic state is the surgical procedure described by Kim and Chung in Pain, 1992, 50, 355-363 (1992) and outlined in Chaplain, et al. in J. Neurosci. Meth., 1994, 53, […]. Briefly, the left L5 and L6 spinal nerves were isolated adjacent to the vertebral column and ligated with 6-0 silk suture distal to the dorsal root ganglion under isoflurane anesthesia. The rats were allowed a minimum 7 day postoperative recovery period before placement in the study.\nTesting groups consisted of 6 rats per group. Each group received test article, (2R)-2-acetyl-amino)-N-[(4-fluorophenyl)methyl]-3-methoxypropanamide (hereinafter “test article”), in one of three concentrations delivered intraperitoneally; the high concentration was 50 mg/kg, the medium concentration was 30 mg/kg and the low concentration was 20 mg/kg. One group of 6 rats received saline control solution at a volume equal to that used for test article.\nTo assess tactile thresholds, rats were placed in a clear plastic, wire mesh-bottomed cage, divided into individual compartments. Animals were allowed to accommodate and then baseline thresholds were taken prior to drug treatment. To determine the 50% mechanical threshold for paw withdrawal, von Frey hairs were applied to the plantar mid-hindpaw, avoiding the tori (footpads). The eight von Frey hairs used are designated by [log(10*force required to bend hair, mg)] and range from 0.4-15.1 grams. Each hair was pressed perpendicularly against the paw with sufficient force to cause slight bending, and held for approximately 6-8 seconds. […] Stimuli were presented successively until either six data points were collected, or the maximum or minimum stimulus was reached. […] If a change in response occurred, either “−” to “+” or “+” to “−”, causing a change in the direction of stimulus presentation from descending to ascending or vice-versa, four additional data points were collected subsequent to the change. The resulting pattern of responses were tabulated and the 50% response threshold computer using the formula: log(threshold, mg×10)=Xf+kh\nwherein: • Xf=value of the last von Frey hair applied; • k=correction factor based on response pattern (from calibration table) • h=mean distance in log units between stimuli.\nBased on observations on normal, —operated rats and sham-operated rats, the cutoff of a 15.1-g hair is selected as the upper limit for testing.\nThe test was performed to establish an average baseline value, counted as time 0; then again at 15, 30, 60, 120 and 240 minutes after the dosing by the control saline solution or the test article."}, "Sprague Dawley male rats [5]": {"system": "Sprague Dawley male rats", "assay": "general behavioral assessment at intraperitoneal doses of 30 to 100 mg/kg", "format": "in vivo", "description": "General behavioral assessments were made during each period of observation and include: tactile allodynia (vocalization/agitation induced by light touch applied to the body surface), spontaneous vocalization, biting and chewing of body surface, loss of hind limb placing and stepping reflex, loss of hind limb weight bearing, and loss of righting reflex. All assessments, were noted as “present”, “absent” or ranked according to a graded scale.\nFour rats were examined at intraperitoneal (IP) doses of 30 to 100 mg/kg."}, "NMDA receptor": {"biological_target": "NMDA receptor (Mus musculus, UniProt P35438)", "assay": "NMDA receptor agonism/antagonism after ICVT administration", "conditions": "ICVT 1 μg/mouse, N 3"}}, "note": "Several values for one entry are separate records, joined by “and”; a condition that tells them apart may be missing. Equal values may be shown once.", "data": [{"compound": "CN1CC[C@]23c4c5ccc(O)c4O[C@H]2[C@@H](O)C=C[C@H]3[C@H]1C5", "note": "[Morphine, reference compound]", "values": [{"measurement": "% Inh.", "setting": "male ICR mice; 10 mg/kg IP", "value": 100, "unit": "%"}, {"measurement": "Response Time 30 Min. (individual animal)", "setting": "male ICR mice; 10 mg/kg IP, 30 minutes after administration, cut-off 15 seconds", "value": ">15"}, {"measurement": "Response Time 30 Min., X", "setting": "male ICR mice; 10 mg/kg IP, mean of 4 mice", "value": 15.0}, {"measurement": "Response Time 0 Min., X", "setting": "male ICR mice; 10 mg/kg IP, mean of 4 mice, pretreatment", "value": 6.9}, {"measurement": "Response Time 0 Min. (individual animal)", "setting": "male ICR mice; 10 mg/kg IP, pretreatment (0 minute)", "value": "7.4 (2×) and 6.5 and 6.4"}, {"measurement": "radiant heat induced tail flick response (in words)", "setting": "male ICR mice; morphine control", "value": "positive response"}]}, {"compound": "CN1C(=O)CN=C(c2ccccc2)c2cc(Cl)ccc21", "note": "[Diazepam, reference compound]", "values": [{"measurement": "Head Twitch, Ave.", "setting": "[1]", "value": 2}]}, {"compound": "CC(=O)Oc1ccccc1C(=O)O", "note": "[Aspirin, reference compound]", "values": [{"measurement": "No. of Writhes, X ± SEM", "setting": "[2]; group of 3 mice", "value": "X ± SEM 0 ± 0"}, {"measurement": "No. of Writhes (individual animal)", "setting": "[2]; one hour before acetic acid, 5 to 10 minute period", "value": 0}, {"measurement": "% Inh.", "setting": "[2]; relative to vehicle control", "value": 100, "unit": "%"}, {"measurement": "% Inh.", "setting": "[3]", "value": 72, "unit": "%"}, {"measurement": "Licking Time, Ave.", "setting": "[3]; 5 mice", "value": 36, "unit": "s"}]}, {"compound": "COC[C@@H](NC(C)=O)C(=O)NCc1ccc(F)cc1", "note": "[test article, (2R)-2-(acetylamino)-N-[(4-fluorophenyl)methyl]-3-methoxypropanamide]", "values": [{"measurement": "thermal escape latency, baseline maintained", "setting": "Holtzman male rats; intrathecal 1 μg/10 μl 10 minutes prior to intrathecal NMDA, out to 20 minutes post NMDA injection, n=2", "value": "about 14 second"}, {"measurement": "thermal escape latency after dropping", "setting": "Holtzman male rats; intrathecal 1 μg/10 μl, later than 20 minutes post NMDA injection, n=2", "value": "approximately 10 seconds"}, {"measurement": "anti-hyperalgesic action in NMDA induced thermal hyperalgesia (in words)", "setting": "Holtzman male rats; preliminary data", "value": "measurable anti-hyperalgesic actions"}, {"measurement": "effect on the Chung Model (in words)", "setting": "Sprague Dawley male rats [4]; 15 mg/kg, previous study", "value": "no effect"}, {"measurement": "tactile threshold after dosing (increase from approximately 2)", "setting": "Sprague Dawley male rats [4]; 20 mg (per kg) IP, 6 rats", "value": "~5", "unit": "grams"}, {"measurement": "rats appearing sedated", "setting": "Sprague Dawley male rats [4]; 30 mg IP, for approximately 1 hour", "value": "Four of 6"}, {"measurement": "tactile threshold after dosing (increase from approximately 2)", "setting": "Sprague Dawley male rats [4]; 30 mg/kg IP, 6 rats", "value": "~5", "unit": "grams"}, {"measurement": "tactile threshold after dosing (increase from 2)", "setting": "Sprague Dawley male rats [4]; 50 mg/kg IP, 6 rats", "value": 11, "unit": "grams"}, {"measurement": "rats appearing sedated", "setting": "Sprague Dawley male rats [4]; 50 mg/kg IP, for approximately 1 hour post injection", "value": "6 of 6"}, {"measurement": "duration of effect after injection", "setting": "Sprague Dawley male rats [4]; IP, Chung Model", "value": "approximately 2 hours"}, {"measurement": "reversal of tactile allodynia (in words)", "setting": "Sprague Dawley male rats [4]; delivered intraperitoneally", "value": "significant reversal of tactile allodynia"}, {"measurement": "behavioral observation", "setting": "Sprague Dawley male rats [5]; 30 mg/kg IP, one rat", "value": "no behavioral deficit"}, {"measurement": "behavioral observation", "setting": "Sprague Dawley male rats [5]; 50 mg/kg IP, one rat, lasted 60 minutes", "value": "slightly catatonic"}, {"measurement": "behavioral observation", "setting": "Sprague Dawley male rats [5]; 60 mg/kg IP, one rat, within 15 minutes, severe exopthalmos, euthanized", "value": "catatonic and displayed abnormal ambulation"}, {"measurement": "behavioral observation", "setting": "Sprague Dawley male rats [5]; 90 mg/kg IP, one rat, within 15 minutes, flaccid, severe exopthalmos, euthanized", "value": "catatonic and unable to right itself"}, {"measurement": "behavioral observation", "setting": "Sprague Dawley male rats [5]; 100 mg/kg IP, one rat, within 15 minutes, euthanized", "value": "laterally recumbent displaying seizures and bleeding from the nose"}, {"measurement": "behavioral observation", "setting": "Sprague Dawley male rats [5]; Fifteen mg/kg, previously shown", "value": "no observable affect"}]}, {"compound": "CN[C@H](CC(=O)O)C(=O)O", "note": "[NMDA, N-methyl-D-aspartate, reference compound]", "values": [{"measurement": "Agonism (mice with convulsions/mortality within 5 minutes)", "setting": "NMDA receptor", "value": 3}]}]}
